Only the 19 paired bases of each siRNA are shown; overhangs and chemistry are not given here.
Columns and labels:
PPIB = experiment: five studies, different assays; details: siRNA
firefly luciferase = experiment: five studies, different assays; details: siRNA
Note: test concentration or dose not given here.

| Substance | target inhibition (PPIB) [%] | target inhibition (firefly luciferase) [%] |
| --- | --- | --- |
| sense ACUUCACCAGGGGAGAUGG / antisense CCAUCUCCCCUGGUGAAGU | 41.9 |  |
| sense AGCUACAGGAGAGAAAGGA / antisense UCCUUUCUCUCCUGUAGCU | 75.8 |  |
| sense AGAACUUCAAACUGAAGCA / antisense UGCUUCAGUUUGAAGUUCU | 45.4 |  |
| sense GAGAUGGCACAGGAGGAAA / antisense UUUCCUCCUGUGCCAUCUC | 70.5 |  |
| sense GCGGAGACUUCACCAGGGG / antisense CCCCUGGUGAAGUCUCCGC | 76.6 |  |
| sense GAUCCAGGGCGGAGACUUC / antisense GAAGUCUCCGCCCUGGAUC | 92.7 |  |
| sense GCUUCCCCGAUGAGAACUU / antisense AAGUUCUCAUCGGGGAAGC | 67.8 |  |
| sense GUGGAUAAUUUUGUGGCCU / antisense AGGCCACAAAAUUAUCCAC | 55 |  |
| sense GCACAGGAGGAAAGAGCAU / antisense AUGCUCUUUCCUCCUGUGC | 90.8 |  |
| sense GGAGACUUCACCAGGGGAG / antisense CUCCCCUGGUGAAGUCUCC | 80.9 |  |
| sense AUAAUUUUGUGGCCUUAGC / antisense GCUAAGGCCACAAAAUUAU | 32.8 |  |
| sense CCGAUGAGAACUUCAAACU / antisense AGUUUGAAGUUCUCAUCGG | 85.1 |  |
| sense CGUGUAAUCAAGGACUUCA / antisense UGAAGUCCUUGAUUACACG | 88.8 |  |
| sense UCCAAAAACAGUGGAUAAU / antisense AUUAUCCACUGUUUUUGGA | 75.3 |  |
| sense GAGAAAGGAUUUGGCUACA / antisense UGUAGCCAAAUCCUUUCUC | 92.3 |  |
| sense UUGUGGCCUUAGCUACAGG / antisense CCUGUAGCUAAGGCCACAA | 16 |  |
| sense UGUAAACAAUCCGGAAGCG / antisense CGCUUCCGGAUUGUUUACA |  | 9.91 |
| sense AUCGUGGAUUACGUCGCCA / antisense UGGCGACGUAAUCCACGAU |  | 44.2 |
| sense GGAAAAAGAGAUCGUGGAU / antisense AUCCACGAUCUCUUUUUCC |  | 91.3 |
| sense GUCGCUCUGCCUCAUAGAA / antisense UUCUAUGAGGCAGAGCGAC |  | 69.9 |
| sense CGCCGCCGUUGUUGUUUUG / antisense CAAAACAACAACGGCGGCG |  | 51.3 |
| sense UGAACUUCCCGCCGCCGUU / antisense AACGGCGGCGGGAAGUUCA |  | 63.3 |

| Substance | target inhibition (PPIB) [%] | target inhibition (firefly luciferase) [%] |
| --- | --- | --- |
| sense AGAGAGAUCCUCAUAAAGG / antisense CCUUUAUGAGGAUCUCUCU |  | 92.6 |
| sense CGCGAAAAAGUUGCGCGGA / antisense UCCGCGCAACUUUUUCGCG |  | 32.1 |
| sense GCAAGAAAAAUCAGAGAGA / antisense UCUCUCUGAUUUUUCUUGC |  | 95.1 |
| sense GUUGUGUUUGUGGACGAAG / antisense CUUCGUCCACAAACACAAC |  | 90.1 |
| sense CCGGAAAACUCGACGCAAG / antisense CUUGCGUCGAGUUUUCCGG |  | 94.9 |
| sense AAAAAGUUGCGCGGAGGAG / antisense CUCCUCCGCGCAACUUUUU |  | 38.8 |
| sense UGGAUUACGUCGCCAGUCA / antisense UGACUGGCGACGUAAUCCA |  | 93.6 |
| sense UACUACACUCGGAUAUUUG / antisense CAAAUAUCCGAGUGUAGUA |  | 38.6 |
| sense GAAGUCUCUGAUUAAGUAC / antisense GUACUUAAUCAGAGACUUC |  | 34.7 |
| sense ACCGAAAGGUCUUACCGGA / antisense UCCGGUAAGACCUUUCGGU |  | 94.7 |
| sense GAUUUCGAGUCGUCUUAAU / antisense AUUAAGACGACUCGAAAUC |  | 98.9 |
| sense ACGUGCAAAAAAAGCUCCC / antisense GGGAGCUUUUUUUGCACGU |  | 30 |
| sense AAAAAGAGAUCGUGGAUUA / antisense UAAUCCACGAUCUCUUUUU |  | 91.2 |
| sense UAAAGAAAGGCCCGGCGCC / antisense GGCGCCGGGCCUUUCUUUA |  | 5.9 |
| sense GACGCCAAAAACAUAAAGA / antisense UCUUUAUGUUUUUGGCGUC |  | 85.8 |
| sense UGUUGUUUUGGAGCACGGA / antisense UCCGUGCUCCAAAACAACA |  | 82.5 |
| sense GUGUUGGGCGCGUUAUUUA / antisense UAAAUAACGCGCCCAACAC |  | 91.9 |
| sense GGGCGCGGUCGGUAAAGUU / antisense AACUUUACCGACCGCGCCC |  | 93.6 |
| sense AGACGAUGACGGAAAAAGA / antisense UCUUUUUCCGUCAUCGUCU |  | 93.1 |
| sense AGAGAUCGUGGAUUACGUC / antisense GACGUAAUCCACGAUCUCU |  | 82.8 |
| sense AAAGAGAUCGUGGAUUACG / antisense CGUAAUCCACGAUCUCUUU |  | 47.4 |
| sense UUUGUGGACGAAGUACCGA / antisense UCGGUACUUCGUCCACAAA |  | -18 |

| Substance | target inhibition (PPIB) [%] | target inhibition (firefly luciferase) [%] |
| --- | --- | --- |
| sense UGUGGACGAAGUACCGAAA / antisense UUUCGGUACUUCGUCCACA |  | 77.8 |
| sense ACGGAAAGACGAUGACGGA / antisense UCCGUCAUCGUCUUUCCGU |  | 73.8 |
| sense GUAACAACCGCGAAAAAGU / antisense ACUUUUUCGCGGUUGUUAC |  | 85.5 |
| sense GGUAAAGUUGUUCCAUUUU / antisense AAAAUGGAACAACUUUACC |  | 94.5 |
| sense AACUUCCCGCCGCCGUUGU / antisense ACAACGGCGGCGGGAAGUU |  | 18.4 |
| sense UUGCGCGGAGGAGUUGUGU / antisense ACACAACUCCUCCGCGCAA |  | 24.9 |
| sense CCUCCCGGUUUUAAUGAAU / antisense AUUCAUUAAAACCGGGAGG |  | 73.5 |
| sense CUUACCGGAAAACUCGACG / antisense CGUCGAGUUUUCCGGUAAG |  | 94.3 |
| sense CGUGGAUUACGUCGCCAGU / antisense ACUGGCGACGUAAUCCACG |  | 87.1 |
| sense UGGAAGAUGGAACCGCUGG / antisense CCAGCGGUUCCAUCUUCCA |  | 16.6 |
| sense GGUUUUGGAAUGUUUACUA / antisense UAGUAAACAUUCCAAAACC |  | 93.3 |
| sense UCAGAGAGAUCCUCAUAAA / antisense UUUAUGAGGAUCUCUCUGA |  | 92.1 |
| sense GCACUCUGAUUGACAAAUA / antisense UAUUUGUCAAUCAGAGUGC |  | 93 |
| sense GUACCGAAAGGUCUUACCG / antisense CGGUAAGACCUUUCGGUAC |  | 80.4 |
| sense CCGUUGUUGUUUUGGAGCA / antisense UGCUCCAAAACAACAACGG |  | 89.3 |
| sense GCAUGCCAGAGAUCCUAUU / antisense AAUAGGAUCUCUGGCAUGC |  | 94.5 |
| sense AACAACCGCGAAAAAGUUG / antisense CAACUUUUUCGCGGUUGUU |  | -5.7 |
| sense AAGAAAAAUCAGAGAGAUC / antisense GAUCUCUCUGAUUUUUCUU |  | 68.1 |
| sense UGACGGAAAAAGAGAUCGU / antisense ACGAUCUCUUUUUCCGUCA |  | 88.8 |
| sense GCCUGAAGUCUCUGAUUAA / antisense UUAAUCAGAGACUUCAGGC |  | 95.6 |

Reference: the OligoGym collection
